For one data set, the system named is HIV-1 (IIIB). The data set can be described thus: Antiviral assay in MT-4 cells. The class given is cell-based. In outline:
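Read-out: CellTiter-Glo luminescence after 5 days at 37 °C, reflecting survival of MT-4 cells infected with HIV-1 IIIB (1:250 fresh stock dilution) versus mock-infected. Compounds serially diluted into RPMI with 10% FBS; AZT at 5 μM served as positive control.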

Data set [1] in a line: Cytotoxicity assay in MT-4 cells. It counts as cell-based. The following applies: human; uninfected MT-4 cells, 5 days incubation, Cell Titer Glo; read-out: MT4 CC50. In a few lines:
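Viability read by Cell Titer Glo luminescence after 5 days at 37 °C. MT-4 cells, not infected, in complete RPMI (10% FBS), received compound dilution series. Base cytotoxicity set with […] puromycin.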

Where [2] appears, read: Human immunodeficiency virus 1, MT4, 120 h, HIV-1 IIIB in MT-4 cells, 5 days incubation, Cell Titer Glo, read-out: MT4 EC50.

Read-outs that look alike come from different tables or passages of the source.

As a reminder, the EC50 is the concentration needed to bring the measured effect to its halfway point. Usually CC50 stands for the concentration at which the toxic effect on the cells reaches its halfway point. For the compound `CC1=NO[C@@]2(CC[C@H](C)N3C[C@H]2n2cc(C(=O)NCc4ccc(F)cc4F)c(=O)c(OC(=O)OCCCCCCCC(C)C)c2C3=O)C1` [Example 160, (3′S,5S,7′R)-10′-((2,4-difluorobenzyl)carbamoyl)-3,3′-dimethyl-1′,11′-dioxo-1′,4′,5′,11′-tetrahydro-3′H,4H,7′H-spiro[isoxazole-5,6′-[2,7]methanopyrido[1,2-a][1,4]diazonin]-12′-yl (8-methylnonyl) carbonate], the EC50 in the data set with HIV-1 (IIIB) (setting [2]) was found to be 1.64 nM. Besides, the CC50 at 5 days in data set [1] was found to be 12.6 µM.
The corresponding values for `COC1=NO[C@@]2(CC[C@H](C)N3C[C@H]2n2cc(C(=O)NCc4ccc(F)cc4F)c(=O)c(OC(=O)OCCCCCCCC(C)C)c2C3=O)C1` [Example 161, (3′S,5S,7′R)-10′-((2,4-difluorobenzyl)carbamoyl)-3-methoxy-3′-methyl-1′,11′-dioxo-1′,4′,5′,11′-tetrahydro-3′H,4H,7′H-spiro[isoxazole-5,6′-[2,7]methanopyrido[1,2-a][1,4]diazonin]-12′-yl (8-methylnonyl) carbonate] are 1.59 nM and 40.6 µM.
Take `COCCOCCOCCOCCOCCOCCOCCOC(=O)Oc1c2n(cc(C(=O)NCc3ccc(F)cc3F)c1=O)[C@@H]1CN(C2=O)[C@@H](C)CC[C@]12CC(C)=NO2` [Example 162, (3′S,5S,7′R)-10′-((2,4-difluorobenzyl)carbamoyl)-3,3′-dimethyl-1′,11′-dioxo-1′,4′,5′,11′-tetrahydro-3′H,4H,7′H-spiro[isoxazole-5,6′-[2,7]methanopyrido[1,2-a][1,4]diazonin]-12′-yl (2,5,8,11,14,17,20-heptaoxadocosan-22-yl) carbonate]: the EC50 in the data set with HIV-1 (IIIB) (setting [2]) was determined as 2.42 nM. Moreover, the CC50 at 5 days in data set [1] worked out at 27.8 µM.
The corresponding values for `COCCOCCOCCOCCOCCOCCOCCOC(=O)Oc1c2n(cc(C(=O)NCc3ccc(F)cc3F)c1=O)[C@@H]1CN(C2=O)[C@@H](C)CC[C@]12CC(OC)=NO2` [Example 163, (3′S,5S,7′R)-10′-((2,4-difluorobenzyl)carbamoyl)-3-methoxy-3′-methyl-1′,11′-dioxo-1′,4′,5′,11′-tetrahydro-3′H,4H,7′H-spiro[isoxazole-5,6′-[2,7]methanopyrido[1,2-a][1,4]diazonin]-12′-yl (2,5,8,11,14,17,20-heptaoxadocosan-22-yl) carbonate] are 2.08 nM and 37.6 µM.
For `CCOC(=O)OCOc1c2n(cc(C(=O)NCc3ccc(F)cc3F)c1=O)[C@@H]1CN(C2=O)[C@@H](C)CC[C@]12CC(OC)=NO2` [Example 173, (((3′S,5S,7′R)-10′-((2,4-difluorobenzyl)carbamoyl)-3-methoxy-3′-methyl-1′,11′-dioxo-1′,4′,5′,11′-tetrahydro-3′H,4H,7′H-spiro[isoxazole-5,6′-[2,7]methanopyrido[1,2-a][1,4]diazonin]-12′-yl)oxy)methyl ethyl carbonate], in that order: 4.75 nM and 37.9 µM.
`CCCOC(=O)OCOc1c2n(cc(C(=O)NCc3ccc(F)cc3F)c1=O)[C@@H]1CN(C2=O)[C@@H](C)CC[C@]12CC(C)=NO2` [Example 174, (((3′S,5S,7′R)-10′-((2,4-difluorobenzyl)carbamoyl)-3,3′-dimethyl-1′,11′-dioxo-1′,4′,5′,11′-tetrahydro-3′H,4H,7′H-spiro[isoxazole-5,6′-[2,7]methanopyrido[1,2-a][1,4]diazonin]-12′-yl)oxy)methyl propyl carbonate]: the EC50 in the data set on HIV-1 (IIIB) (setting [2]) came to 2.4 nM. In data set [1], the CC50 at 5 days was found to be 18.1 µM.
On to `CCCOC(=O)OCOc1c2n(cc(C(=O)NCc3ccc(F)cc3F)c1=O)[C@@H]1CN(C2=O)[C@@H](C)CC[C@]12CC(OC)=NO2` [Example 175, (((3′S,5S,7′R)-10′-((2,4-difluorobenzyl)carbamoyl)-3-methoxy-3′-methyl-1′,11′-dioxo-1′,4′,5′,11′-tetrahydro-3′H,4H,7′H-spiro[isoxazole-5,6′-[2,7]methanopyrido[1,2-a][1,4]diazonin]-12′-yl)oxy)methyl propyl carbonate], for which the EC50 in the data set on HIV-1 (IIIB) (setting [2]) worked out at 2.06 nM. Besides, the CC50 at 5 days in data set [1] came out at 23.3 µM.
The corresponding values for `CCCCOC(=O)OCOc1c2n(cc(C(=O)NCc3ccc(F)cc3F)c1=O)[C@@H]1CN(C2=O)[C@@H](C)CC[C@]12CC(C)=NO2` [Example 176, butyl ((((3′S,5S,7′R)-10′-((2,4-difluorobenzyl)carbamoyl)-3,3′-dimethyl-1′,11′-dioxo-1′,4′,5′,11′-tetrahydro-3′H,4H,7′H-spiro[isoxazole-5,6′-[2,7]methanopyrido[1,2-a][1,4]diazonin]-12′-yl)oxy)methyl) carbonate] are 0.284 nM and 23 µM.
For `CCCCOC(=O)OCOc1c2n(cc(C(=O)NCc3ccc(F)cc3F)c1=O)[C@@H]1CN(C2=O)[C@@H](C)CC[C@]12CC(OC)=NO2` [Example 177, butyl ((((3′S,5S,7′R)-10′-((2,4-difluorobenzyl)carbamoyl)-3-methoxy-3′-methyl-1′,11′-dioxo-1′,4′,5′,11′-tetrahydro-3′H,4H,7′H-spiro[isoxazole-5,6′-[2,7]methanopyrido[1,2-a][1,4]diazonin]-12′-yl)oxy)methyl) carbonate], in that order: 0.366 nM and 23.9 µM.
Regarding `CCCCCCCCOC(=O)OCOc1c2n(cc(C(=O)NCc3ccc(F)cc3F)c1=O)[C@@H]1CN(C2=O)[C@@H](C)CC[C@]12CC(C)=NO2` [Example 178, (((3′S,5S,7′R)-10′-((2,4-difluorobenzyl)carbamoyl)-3,3′-dimethyl-1′,11′-dioxo-1′,4′,5′,11′-tetrahydro-3′H,4H,7′H-spiro[isoxazole-5,6′-[2,7]methanopyrido[1,2-a][1,4]diazonin]-12′-yl)oxy)methyl octyl carbonate], the concentration giving a half-maximal response (EC50) with HIV-1 (IIIB) (Human immunodeficiency virus 1, IIIB, MT4, 120 h, read-out: MT4 EC50 (nM)) amounted to 2.64 nM. In data set [1], the CC50 at 5 days worked out at 15.8 µM.
With `CCCCCOC(=O)OCOc1c2n(cc(C(=O)NCc3ccc(F)cc3F)c1=O)[C@@H]1CN(C2=O)[C@@H](C)CC[C@]12CC(C)=NO2` [Example 179, (((3′S,5S,7′R)-10′-((2,4-difluorobenzyl)carbamoyl)-3,3′-dimethyl-1′,11′-dioxo-1′,4′,5′,11′-tetrahydro-3′H,4H,7′H-spiro[isoxazole-5,6′-[2,7]methanopyrido[1,2-a][1,4]diazonin]-12′-yl)oxy)methyl pentyl carbonate], the EC50 with HIV-1 (IIIB) (setting [2]) is 0.527 nM. The CC50 at 5 days in data set [1] is ≥ 50 µM.
`CCCCCOC(=O)OCOc1c2n(cc(C(=O)NCc3ccc(F)cc3F)c1=O)[C@@H]1CN(C2=O)[C@@H](C)CC[C@]12CC(OC)=NO2` [Example 180, (((3′S,5S,7′R)-10′-((2,4-difluorobenzyl)carbamoyl)-3-methoxy-3′-methyl-1′,11′-dioxo-1′,4′,5′,11′-tetrahydro-3′H,4H,7′H-spiro[isoxazole-5,6′-[2,7]methanopyrido[1,2-a][1,4]diazonin]-12′-yl)oxy)methyl pentyl carbonate]: the EC50 in the data set with HIV-1 (IIIB) (setting [2]) came out at 0.274 nM. The CC50 at 5 days in data set [1] is ≥ 50 µM.
Consider `CCCCCCOC(=O)OCOc1c2n(cc(C(=O)NCc3ccc(F)cc3F)c1=O)[C@@H]1CN(C2=O)[C@@H](C)CC[C@]12CC(C)=NO2` [Example 181, (((3′S,5S,7′R)-10′-((2,4-difluorobenzyl)carbamoyl)-3,3′-dimethyl-1′,11′-dioxo-1′,4′,5′,11′-tetrahydro-3′H,4H,7′H-spiro[isoxazole-5,6′-[2,7]methanopyrido[1,2-a][1,4]diazonin]-12′-yl)oxy)methyl hexyl carbonate], for which, in the data set on HIV-1 (IIIB) (setting [2]), the EC50 is 0.262 nM. For the same compound, the CC50 at 5 days in data set [1] came to 14.7 µM.
The corresponding values for `CCCCCCOC(=O)OCOc1c2n(cc(C(=O)NCc3ccc(F)cc3F)c1=O)[C@@H]1CN(C2=O)[C@@H](C)CC[C@]12CC(OC)=NO2` [Example 182, (((3′S,5S,7′R)-10′-((2,4-difluorobenzyl)carbamoyl)-3-methoxy-3′-methyl-1′,11′-dioxo-1′,4′,5′,11′-tetrahydro-3′H,4H,7′H-spiro[isoxazole-5,6′-[2,7]methanopyrido[1,2-a][1,4]diazonin]-12′-yl)oxy)methyl hexyl carbonate] are 0.29 nM and 47.9 µM.
For `CCCCCCCOC(=O)OCOc1c2n(cc(C(=O)NCc3ccc(F)cc3F)c1=O)[C@@H]1CN(C2=O)[C@@H](C)CC[C@]12CC(C)=NO2` [Example 183, (((3′S,5S,7′R)-10′-((2,4-difluorobenzyl)carbamoyl)-3,3′-dimethyl-1′,11′-dioxo-1′,4′,5′,11′-tetrahydro-3′H,4H,7′H-spiro[isoxazole-5,6′-[2,7]methanopyrido[1,2-a][1,4]diazonin]-12′-yl)oxy)methyl heptyl carbonate], in that order: 0.358 nM and 11.4 µM.
The corresponding values for `CCCCCCCOC(=O)OCOc1c2n(cc(C(=O)NCc3ccc(F)cc3F)c1=O)[C@@H]1CN(C2=O)[C@@H](C)CC[C@]12CC(OC)=NO2` [Example 184, (((3′S,5S,7′R)-10′-((2,4-difluorobenzyl)carbamoyl)-3-methoxy-3′-methyl-1′,11′-dioxo-1′,4′,5′,11′-tetrahydro-3′H,4H,7′H-spiro[isoxazole-5,6′-[2,7]methanopyrido[1,2-a][1,4]diazonin]-12′-yl)oxy)methyl heptyl carbonate] are 0.441 nM and 9.98 µM.
In the case of `CCCCCCCCOC(=O)OCOc1c2n(cc(C(=O)NCc3ccc(F)cc3F)c1=O)[C@@H]1CN(C2=O)[C@@H](C)CC[C@]12CC(OC)=NO2` [Example 185, (((3′S,5S,7′R)-10′-((2,4-difluorobenzyl)carbamoyl)-3-methoxy-3′-methyl-1′,11′-dioxo-1′,4′,5′,11′-tetrahydro-3′H,4H,7′H-spiro[isoxazole-5,6′-[2,7]methanopyrido[1,2-a][1,4]diazonin]-12′-yl)oxy)methyl octyl carbonate], the 50% effective concentration (EC50) in the data set with HIV-1 (IIIB) (setting [2]) turned out to be 5.14 nM. Also, in data set [1], the half-maximal cytotoxic concentration (CC50) at 5 days is ≥ 50 µM.

The values above are taken from US20250122219A1 (priority 2023, published 2025).
